Test results as given in article PMC9668969 (Nature Communications, 2022).
Several values for one entry are separate records, joined by “and”; a condition that tells them apart may be missing. Identical values can stand only once.

How the values were obtained:
Assay type in all cases: biochemical, Erwinia chrysanthemi
WT ELIC = assay: Tryptophan stopped-flow fluorescence measurements (rapid mixing with agonist, DDM); conditions: for Normalized change in TRP fluorescence: single experiments
Protocol: To measure the tryptophan (Trp) fluorescence emission of ELIC, WT or W206F ELIC was diluted to 3 ml (0.02 mg/ml) and an emission spectrum was collected in a quartz fluorescence cell using a Fluoromax Plus Spectrofluorometer (Horiba Scientific). Excitation was set at 295 nm and an emission spectrum was collected from 320 to 380 nm. Trp fluorescence measurements with rapid mixing of agonist was carried out using the SX20 stopped-flow spectrofluorometer, outfitted with a 295 nm LED excitation source. Purified ELIC was diluted to 0.1 mg/ml in Trp Stopped-flow Buffer A (10 mM Tris pH 7.5, 100 mM NaCl, 0.05% DDM). A single mixing experiment was performed by mixing ELIC with equal volumes of Buffer A + propylamine. Propylamine was prepared at varying concentrations at 2x the final concentration. The instrument dead time was ~1 ms, enabling capture of most of the time course of change in Trp fluorescence. The time course of decrease in Trp fluorescence after rapid mixing with propylamine was fit to a single exponential to obtain a time constant for the rate of decrease and a measure of the extent of decrease. All replicates were taken from distinct samples.

ELIC W206F = target: T1, ELIC W206F (Dickeya chrysanthemi, UniProt P0C7B7, W205F); conditions: 25 mol% outer leaflet POPG, 10 mM propylamine
T1 construct: host or cells: OverExpress C43 (DE3) E. coli
T1 sequence (P0C7B7 whole entry W205F): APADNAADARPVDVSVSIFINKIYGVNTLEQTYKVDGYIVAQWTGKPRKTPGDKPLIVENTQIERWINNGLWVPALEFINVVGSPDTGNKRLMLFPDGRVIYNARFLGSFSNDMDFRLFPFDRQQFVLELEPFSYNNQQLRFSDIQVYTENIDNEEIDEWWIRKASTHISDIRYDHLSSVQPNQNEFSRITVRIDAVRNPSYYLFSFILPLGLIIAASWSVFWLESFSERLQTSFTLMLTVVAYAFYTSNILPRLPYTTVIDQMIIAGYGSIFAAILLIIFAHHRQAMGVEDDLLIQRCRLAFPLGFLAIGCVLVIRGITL
Protocol: (§1) The mutations were tested as for WT by examining the effect of 25 mol% outer leaflet POPG in paired (no exchange versus exchange) samples (Supplementary Fig. 15).
(§2) The fluorescence sequential-mixing stopped-flow liposomal flux measurements were carried using an SX20 stopped-flow spectrofluorometer (Applied Photophysics) and Pro-Data SX software[13],[30]. 7.5 mg of the respective lipid mixture (POPC, 1:1 POPC: POPE, 1:1 POPC:POPG, 3:1 POPC:POPE, 3:1 POPC:POPG, 2:1:1 POPC:POPE:POPG) was dried in a glass vial to a thin film under a constant stream of N2. The lipids were then further dried under vacuum in a desiccator overnight. The following day the lipids were hydrated in 500 µl of reconstitution buffer (100 mM NaNO3, 10 mM HEPES, pH 7) (Buffer R), 250 µl of 75 mM 8-Aminonaphthalene-1,3,6-Trisulfonic Acid (ANTS, ThermoFisher Scientific) in buffer R, and doped with ~18 mg of CHAPS (Anatrace). The mixture was vortexed and then sonicated with heat until completely solubilized. Following the sonication, the solution was brought to RT then 3.5 µl of 6.7 mg/ml ELIC in Buffer A with 0.02% DDM was added (3 µg per mg of lipid). This combined solution was incubated at RT for 30 min, followed by the addition of 1 ml of 1:1 v/v SM-2 BioBeads in Buffer R and an additional 250 µl of 75 mM ANTS in Buffer R. This mixture was incubated at RT for 2.5 hr with gentle mixing. The liposome suspension was then extruded with an Avanti mini-extruder and 0.1 µm membrane (30×). The extruded liposomes were stored at 13 °C overnight with gentle rotation. The next day, the liposomes were diluted to 2.5 mL using assay buffer (140 mM NaNO3, 10 mM HEPES, pH 7) (Stopped-flow Buffer A), loaded into a PD-10 desalting column (Cytiva), eluted with 3 mL of Stopped-flow Buffer A and subsequently diluted 5-fold with Stopped-flow Buffer A.
(§3) Using propylamine as the agonist, the assay and analysis was carried out as previously described[13],[30].

ELIC T259A = target: T2, ELIC T259A (Dickeya chrysanthemi, UniProt P0C7B7, T258A/T259A); conditions: 25 mol% outer leaflet POPG, 10 mM propylamine
T2 construct: host or cells: OverExpress C43 (DE3) E. coli
T2 sequence (P0C7B7 whole entry T258A/T259A): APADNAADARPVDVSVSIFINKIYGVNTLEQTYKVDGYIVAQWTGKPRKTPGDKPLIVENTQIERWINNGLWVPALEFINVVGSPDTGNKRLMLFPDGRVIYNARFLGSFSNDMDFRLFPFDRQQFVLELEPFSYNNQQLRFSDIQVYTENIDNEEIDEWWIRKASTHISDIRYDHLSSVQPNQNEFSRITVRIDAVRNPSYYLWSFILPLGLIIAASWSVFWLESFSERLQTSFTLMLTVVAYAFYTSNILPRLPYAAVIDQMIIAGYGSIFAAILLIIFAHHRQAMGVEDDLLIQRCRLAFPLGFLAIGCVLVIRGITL
Protocol: as §1, §2, §3

ELIC Q264L = target: T3, ELIC Q264L (Dickeya chrysanthemi, UniProt P0C7B7, Q263L); conditions: 25 mol% outer leaflet POPG, 10 mM propylamine
T3 construct: host or cells: OverExpress C43 (DE3) E. coli
T3 sequence (P0C7B7 whole entry Q263L): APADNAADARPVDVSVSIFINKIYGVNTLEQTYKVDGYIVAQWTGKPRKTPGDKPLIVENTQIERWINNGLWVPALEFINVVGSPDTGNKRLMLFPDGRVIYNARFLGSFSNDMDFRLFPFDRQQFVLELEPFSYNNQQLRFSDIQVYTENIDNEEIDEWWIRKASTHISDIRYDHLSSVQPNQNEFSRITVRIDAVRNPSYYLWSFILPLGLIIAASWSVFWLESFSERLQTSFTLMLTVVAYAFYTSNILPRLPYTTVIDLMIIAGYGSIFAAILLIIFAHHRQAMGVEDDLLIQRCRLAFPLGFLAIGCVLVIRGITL
Protocol: as §1, §2, §3

ELIC R318A = target: T4, ELIC R318A (Dickeya chrysanthemi, UniProt P0C7B7, R317A); conditions: 25 mol% outer leaflet POPG, 10 mM propylamine
T4 construct: host or cells: OverExpress C43 (DE3) E. coli
T4 sequence (P0C7B7 whole entry R317A): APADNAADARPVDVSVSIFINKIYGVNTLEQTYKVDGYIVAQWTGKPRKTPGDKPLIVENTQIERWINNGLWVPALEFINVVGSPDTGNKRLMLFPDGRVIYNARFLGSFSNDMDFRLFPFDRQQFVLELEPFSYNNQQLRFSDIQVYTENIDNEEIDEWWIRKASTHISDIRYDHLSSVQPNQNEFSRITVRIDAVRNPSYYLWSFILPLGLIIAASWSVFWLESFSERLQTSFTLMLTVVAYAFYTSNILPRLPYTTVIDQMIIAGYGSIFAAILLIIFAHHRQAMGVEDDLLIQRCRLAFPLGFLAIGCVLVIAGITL
Protocol: as §1, §2, §3

ELIC S202A = target: T5, ELIC S202A (Dickeya chrysanthemi, UniProt P0C7B7, S201A); conditions: 25 mol% outer leaflet POPG, 10 mM propylamine
T5 construct: host or cells: OverExpress C43 (DE3) E. coli
T5 sequence (P0C7B7 whole entry S201A): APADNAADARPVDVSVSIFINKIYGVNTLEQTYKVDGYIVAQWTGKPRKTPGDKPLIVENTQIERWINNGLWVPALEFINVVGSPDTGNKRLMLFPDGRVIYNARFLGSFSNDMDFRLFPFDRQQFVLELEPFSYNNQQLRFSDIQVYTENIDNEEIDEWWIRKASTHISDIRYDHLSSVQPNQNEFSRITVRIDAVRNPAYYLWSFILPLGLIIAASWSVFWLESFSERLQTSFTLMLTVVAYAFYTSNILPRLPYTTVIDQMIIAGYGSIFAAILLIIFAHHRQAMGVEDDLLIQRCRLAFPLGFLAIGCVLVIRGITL
Protocol: as §1, §2, §3

ELIC R117A = assay: Asymmetric liposome stopped-flow Tl+ flux assay, mutant; conditions: 25 mol% outer leaflet POPG, 10 mM propylamine
Protocol: We next tested the effect of mutations that directly interact with the phospholipid in the ELIC5 CA structure (R117, T259), or are near this site and previously shown to interact with cardiolipin (S202, R318A, T259A and W206F) (Fig. 6a)[14]. The mutations were tested as for WT by examining the effect of 25 mol% outer leaflet POPG in paired (no exchange versus exchange) samples (Supplementary Fig. 15). […] Despite the mutations having various effects on ELIC agonist responses, comparison of no exchange and exchange samples enabled assessment of the effect of POPG.
The fluorescence sequential-mixing stopped-flow liposomal flux measurements were carried using an SX20 stopped-flow spectrofluorometer (Applied Photophysics) and Pro-Data SX software[13],[30]. […]
Using propylamine as the agonist, the assay and analysis was carried out as previously described[13],[30]. […] After a variable delay of 10 ms to 25 s, the sample was then mixed 1:1 with a quenching buffer (90 mM NaNO3, 50 mM TlNO3, 10 mM HEPES, pH 7), and ANTS fluorescence (ex. 360 nm, fluorescence above 420 nm) was recorded for 1 s. […] The time course of desensitization was also fit to a double exponential and a weighted time constant was calculated as was done for the patch-clamp data using Origin 2019b. […]
Acceptor liposomes were prepared as described in the Stopped-flow fluorescence recordings section until completion of the extrusion step. […]

Question: Which results are given for `CCCN` [propylamine]?
Answer: time constant of TRP fluorescence decrease (WT ELIC; 10 mM propylamine, DDM): 9.9 ± 0.6 ms; Normalized change in TRP fluorescence, Average (WT ELIC; DDM, Propylamine 0.3 mM): 0.01079; Normalized change in TRP fluorescence, Average (WT ELIC; DDM, Propylamine 1 mM): 0.08703; Normalized change in TRP fluorescence, Average (WT ELIC; DDM, Propylamine 3 mM): 0.49; Normalized change in TRP fluorescence (WT ELIC; DDM, Propylamine 3 mM): 0.3909 and 0.6901 and 0.389; Normalized change in TRP fluorescence, Average (WT ELIC; DDM, Propylamine 10 mM): 0.7765; Normalized change in TRP fluorescence (WT ELIC; DDM, Propylamine 10 mM): 0.6381 and 0.8944 and 0.797; Normalized change in TRP fluorescence, Average (WT ELIC; DDM, Propylamine 30 mM): 0.9154; Normalized change in TRP fluorescence (WT ELIC; DDM, Propylamine 30 mM): 0.9392 and 0.8561 and 0.951; Normalized change in TRP fluorescence, Average (WT ELIC; DDM, Propylamine 100 mM): 1; Normalized change in TRP fluorescence (WT ELIC; DDM, Propylamine 100 mM): 1; Hill n of normalized change in TRP fluorescence (WT ELIC; ELIC in DDM): 1.6 ± 0.3; EC50 (WT ELIC; ELIC in DDM, Hill fit, read-out: EC50 of normalized change in TRP fluorescence): 4.3 ± 0.8 mM; rate of decrease in tryptophan fluorescence relative to channel opening (fold faster) (WT ELIC; vs Tl+ flux in 2:1:1 or POPC liposomes): 2–4 ×

Question: For `CCCCCCCC/C=C\CCCCCCCC(=O)OC(COC(=O)CCCCCCCCCCCCCCC)COP(=O)(O)OCC(O)CO` (stereo not drawn) [POPG, 1-palmitoyl-2-oleoyl-phosphatidylglycerol], which “POPG modulation (peak response and desensitization)” value (from here on “POPG modulation”) (ELIC W206F) is on record?
Answer: Its value is “POPG only decreases desensitization”.

Question: What about the “POPG modulation” value (ELIC T259A) of the same compound?
Answer: The value was “POPG only decreases desensitization”.

Question: What about the “POPG modulation” value (ELIC Q264L) of the same compound?
Answer: Its value is “POPG modulation is preserved”.

Question: And the “increase in the measurable peak response” value (ELIC Q264L)?
Answer: The value was 2 ×.

Question: And the “POPG modulation” value (ELIC R318A)?
Answer: The value was “POPG only decreases desensitization”.

Question: And the “POPG modulation” value (ELIC S202A)?
Answer: Its value is “both effects of POPG (increased peak response and decreased desensitization) are abolished”.

Question: And the “POPG modulation” value (ELIC R117A)?
Answer: The value was “both effects of POPG (increased peak response and decreased desensitization) are abolished”.
